Source: PubChem BioAssay (NCI)
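1) Cells in 96-well plates. 2) Compound, 48 h, 5 concentrations. 3) Linear interpolation between surrounding doses. 4) Unreached endpoint = highest concentration. TGI marks complete inhibition of growth.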

Legend:
Test in all cases: NCI tumour cell line growth inhibition, 48 h
SNB-19 CNS = test system: SNB-19 CNS
K-562 leukemia = test system: K-562 leukemia
XF 498 CNS = test system: XF 498 CNS
KM12 colon = test system: KM12 colon
SF-295 CNS = test system: SF-295 CNS
LOX IMVI melanoma = test system: LOX IMVI melanoma
UO-31 renal = test system: UO-31 renal
SN12C renal = test system: SN12C renal
DMS 273 small cell lung = test system: DMS 273 small cell lung
OVCAR-5 ovarian = test system: OVCAR-5 ovarian
SNB-78 CNS = test system: SNB-78 CNS
A498 renal = test system: A498 renal
UACC-62 melanoma = test system: UACC-62 melanoma
OVCAR-3 ovarian = test system: OVCAR-3 ovarian
HL-60(TB) leukemia = test system: HL-60(TB) leukemia
NCI-H460 lung = test system: NCI-H460 lung
NCI-H522 lung = test system: NCI-H522 lung
SNB-75 CNS = test system: SNB-75 CNS
HCT-15 colon = test system: HCT-15 colon
IGROV1 ovarian = test system: IGROV1 ovarian
OVCAR-4 ovarian = test system: OVCAR-4 ovarian
SF-539 CNS = test system: SF-539 CNS
HOP-18 NSCLC = test system: HOP-18 NSCLC
NCI-H23 lung = test system: NCI-H23 lung
DLD-1 colon = test system: DLD-1 colon
SK-MEL-28 melanoma = test system: SK-MEL-28 melanoma
HT29 colon = test system: HT29 colon
RPMI-8226 leukemia = test system: RPMI-8226 leukemia
MOLT-4 leukemia = test system: MOLT-4 leukemia
NCI-H226 lung = test system: NCI-H226 lung
CCRF-CEM leukemia = test system: CCRF-CEM leukemia
HOP-92 NSCLC = test system: HOP-92 NSCLC
SF-268 CNS = test system: SF-268 CNS
EKVX NSCLC = test system: EKVX NSCLC
KM20L2 colon = test system: KM20L2 colon
M19-MEL melanoma = test system: M19-MEL melanoma
HCT-116 colon = test system: HCT-116 colon
LXFL 529 NSCLC = test system: LXFL 529 NSCLC
UACC-257 melanoma = test system: UACC-257 melanoma
RXF-631 renal = test system: RXF-631 renal
M14 melanoma = test system: M14 melanoma
OVCAR-8 ovarian = test system: OVCAR-8 ovarian
SK-OV-3 ovarian = test system: SK-OV-3 ovarian
ACHN renal = test system: ACHN renal
CAKI-1 renal = test system: CAKI-1 renal
TK-10 renal = test system: TK-10 renal
U251 CNS = test system: U251 CNS
DMS 114 small cell lung = test system: DMS 114 small cell lung
COLO 205 colon = test system: COLO 205 colon
RXF 393 renal = test system: RXF 393 renal
SK-MEL-5 melanoma = test system: SK-MEL-5 melanoma
SW-620 colon = test system: SW-620 colon
A549 NSCLC = test system: A549 NSCLC
786-0 renal = test system: 786-0 renal

CC(=O)N/C(=C\c1ccc(/C=C(\NC(C)=O)C2=NC3C(=O)c4ccccc4C(=O)C3N2)cc1)C1=NC2C(=O)c3ccccc3C(=O)C2N1 (centres undefined)
TGI (SNB-19 CNS): > 100 µM
TGI (K-562 leukemia): > 100 µM
TGI (XF 498 CNS): > 100 µM
TGI (KM12 colon): > 100 µM
TGI (SF-295 CNS): > 100 µM
TGI (LOX IMVI melanoma): > 100 µM
TGI (UO-31 renal): 74.1 µM
TGI (SN12C renal): > 100 µM
TGI (DMS 273 small cell lung): > 100 µM
TGI (OVCAR-5 ovarian): > 100 µM
TGI (SNB-78 CNS): > 100 µM
TGI (A498 renal): > 100 µM
TGI (UACC-62 melanoma): > 100 µM
TGI (OVCAR-3 ovarian): > 100 µM
TGI (HL-60(TB) leukemia): > 100 µM
TGI (NCI-H460 lung): > 100 µM
TGI (NCI-H522 lung): > 100 µM
TGI (SNB-75 CNS): 76.2 µM
TGI (HCT-15 colon): > 100 µM
TGI (IGROV1 ovarian): > 100 µM
TGI (OVCAR-4 ovarian): > 100 µM
TGI (SF-539 CNS): > 100 µM
TGI (HOP-18 NSCLC): > 100 µM
TGI (NCI-H23 lung): > 100 µM
TGI (DLD-1 colon): > 100 µM
TGI (SK-MEL-28 melanoma): > 100 µM
TGI (HT29 colon): > 100 µM
TGI (RPMI-8226 leukemia): > 100 µM
TGI (MOLT-4 leukemia): 26.6 µM
TGI (NCI-H226 lung): > 100 µM
TGI (CCRF-CEM leukemia): 86.4 µM
TGI (HOP-92 NSCLC): > 100 µM
TGI (SF-268 CNS): > 100 µM
TGI (EKVX NSCLC): > 100 µM
TGI (KM20L2 colon): > 100 µM
TGI (M19-MEL melanoma): > 100 µM
TGI (HCT-116 colon): > 100 µM
TGI (LXFL 529 NSCLC): > 100 µM
TGI (UACC-257 melanoma): > 100 µM
TGI (RXF-631 renal): > 100 µM
TGI (M14 melanoma): > 100 µM
TGI (OVCAR-8 ovarian): > 100 µM
TGI (SK-OV-3 ovarian): > 100 µM
TGI (ACHN renal): > 100 µM
TGI (CAKI-1 renal): > 100 µM
TGI (TK-10 renal): 69.3 µM
TGI (U251 CNS): > 100 µM
TGI (DMS 114 small cell lung): > 100 µM
TGI (COLO 205 colon): > 100 µM
TGI (RXF 393 renal): > 100 µM

Cn1nc(-c2ccccc2)c(C(=O)/C=C/c2ccc(F)cc2)c(N2CCOCC2)c1=O
TGI (SNB-19 CNS): 31.8 µM
TGI (K-562 leukemia): 53.2 µM
TGI (XF 498 CNS): 42.7 µM
TGI (SF-295 CNS): 32.4 µM
TGI (LOX IMVI melanoma): 75.4 µM
TGI (SK-MEL-5 melanoma): 29.3 µM
TGI (UO-31 renal): 25.6 µM
TGI (SN12C renal): > 100 µM
TGI (DMS 273 small cell lung): 53 µM
TGI (A498 renal): 32 µM
TGI (UACC-62 melanoma): 43 µM
TGI (HL-60(TB) leukemia): 40.5 µM
TGI (NCI-H460 lung): 78.2 µM
TGI (SW-620 colon): 47.1 µM
TGI (NCI-H522 lung): 36.4 µM
TGI (HCT-15 colon): > 100 µM
TGI (IGROV1 ovarian): 39.3 µM
TGI (SF-539 CNS): 36.3 µM
TGI (A549 NSCLC): 54.3 µM
TGI (HOP-18 NSCLC): 37.3 µM
TGI (DLD-1 colon): > 100 µM
TGI (SK-MEL-28 melanoma): 31.5 µM
TGI (HT29 colon): 30.2 µM
TGI (RPMI-8226 leukemia): 23.2 µM
TGI (MOLT-4 leukemia): 48.7 µM
TGI (CCRF-CEM leukemia): 49.2 µM
TGI (HOP-92 NSCLC): 36.4 µM
TGI (SF-268 CNS): 38.2 µM
TGI (EKVX NSCLC): 75 µM
TGI (KM20L2 colon): 31.6 µM
TGI (M19-MEL melanoma): 39 µM
TGI (HCT-116 colon): 14.3 µM
TGI (LXFL 529 NSCLC): 30.9 µM
TGI (RXF-631 renal): 86.6 µM
TGI (M14 melanoma): 48.8 µM
TGI (OVCAR-8 ovarian): > 100 µM
TGI (SK-OV-3 ovarian): > 100 µM
TGI (ACHN renal): 42.1 µM
TGI (TK-10 renal): 97.5 µM
TGI (786-0 renal): 36.2 µM
TGI (U251 CNS): 31.4 µM
TGI (DMS 114 small cell lung): 33.4 µM
TGI (COLO 205 colon): 34.6 µM
TGI (RXF 393 renal): 27.8 µM
